US20020061838A1, “Peptide pharmaceutical formulations” (priority 2000, published 2002)

Columns and labels:
[1] = Total GRF in plasma after intravenous bolus in a rat; format: in vivo; details: intravenous bolus of 20 μg, 10 mM sodium acetate, 5.07% D-mannitol, pH 4.7
Experimental: Total GRF detected in the plasma of a rat following intravenous administration of 20 μg of GRF in the preferred formulation (4 mg/mL GRF dissolved in 10 mM sodium acetate, 5.07% D-mannitol, adjusted to pH 4.7).

[2] = Long-term stability in the preferred embodiment (HPLC and/or bioactivity)
Experimental: The vials containing 1 mL of formulated drug were put into thermostatted chambers and assayed for % peptide remaining as a function of time after storage at different temperatures. Bioactivity of the formulations at the time points was also measured.
GRF activity was assessed similarly using a cell line containing an expressed GRF receptor and monitoring the response of cell to GRF by the cAMP-responsive secreted alkaline phosphatase reporter system.

[3] = Tolerability and response after subcutaneous or intravenous delivery of the formulations in humans
[4] = Stability of GLP-1, PTH and GRF in the preferred formulation by reversed phase HPLC (percent peptide remaining); details: 10 mM acetate; for Percent peptide remaining: 5.07% (w/v) D-mannitol, pH 4.7; for stability: 4, 8, and 10 mg/mL, pH 4.7, 5.07% D-mannitol
Experimental: The vials were stored at the indicated temperatures for the indicated times. Samples were removed and assayed for the loss of parent peptide by HPLC, using a reversed phase C18 (1×15 cm) analytical column. Samples (10 μl) were injected directly and resolved with a gradient of acetonitrile in water, in the presence of 0.1% trifluoroacetic acid. Percent peptide remaining at the times indicated was calculated as the area of the intact peptide divided by the total area of the intact peptide plus that of the decomposition products times 100.

[5] = pH 7.4; cited from earlier work

appearance of peptide in blood plasma [1]	stability (additional formulations, extended periods) ([2]; 4-6 weeks at 25° C.)	stability (additional formulations, extended periods) ([2]; 12 months at 4° C.)	stability compared with the GLP-1 formulations ([2]; formulations where the peptide is GRF or PTH, Drawings 3, 5)	Percent peptide remaining ([4]; 4 mg/mL, 14 days, 4° C.)	Percent peptide remaining ([4]; 4 mg/mL, 14 days, 25° C.)	Percent peptide remaining ([4]; 4 mg/mL, 14 days, 50° C.)	Percent peptide remaining ([4]; 8 mg/mL, 14 days, 4° C.)	Percent peptide remaining ([4]; 8 mg/mL, 14 days, 25° C.)	Percent peptide remaining ([4]; 8 mg/mL, 14 days, 50° C.)	Percent peptide remaining ([4]; 10 mg/mL, 14 days, 4° C.)	Percent peptide remaining ([4]; 10 mg/mL, 14 days, 25° C.)	Percent peptide remaining ([4]; 10 mg/mL, 14 days, 50° C.)	stability ([4]; 25° C., 14 days)	stability ([4]; 50° C., 14 days)	stability ([4]; −20° C. to 4° C., over 14 days)	Compound	complications of delivery ([3]; human subjects, intravenous and subcutaneous delivery, preferred formulations)	discomfort at the injection site ([3]; humans, subcutaneous, about 1 mL)	solubility at physiological pH [5]	period over which the peptide was stable ([2]; about 0.005 to 1.0 mg/mL, 4° C., inventive formulations)
rapidly appears in the blood plasma	at least 90%	at least 90%	comparable stability	98%	96%	63%	98%	96%	63%	98%	96%	63%	at least 96%	63%	at least 98%	CC[C@H](C)[C@H](NC(=O)[C@H](C)NC(=O)[C@H](CC(=O)O)NC(=O)[C@H](C)NC(=O)[C@@H](N)Cc1ccc(O)cc1)C(=O)N[C@@H](Cc1ccccc1)C(=O)N[C@H](C(=O)N[C@@H](CC(N)=O)C(=O)N[C@@H](CO)C(=O)N[C@@H](Cc1ccc(O)cc1)C(=O)N[C@@H](CCCNC(=N)N)C(=O)N[C@@H](CCCCN)C(=O)N[C@H](C(=O)N[C@@H](CC(C)C)C(=O)NCC(=O)N[C@@H](CCC(N)=O)C(=O)N[C@@H](CC(C)C)C(=O)N[C@@H](CO)C(=O)N[C@@H](C)C(=O)N[C@@H](CCCNC(=N)N)C(=O)N[C@@H](CCCCN)C(=O)N[C@@H](CC(C)C)C(=O)N[C@@H](CC(C)C)C(=O)N[C@@H](CCC(N)=O)C(=O)N[C@@H](CC(=O)O)C(=O)N[C@H](C(=O)N[C@@H](CCSC)C(=O)N[C@@H](CO)C(=O)N[C@@H](CCCNC(=N)N)C(=O)N[C@@H](CCC(N)=O)C(=O)N[C@@H](CCC(N)=O)C(=O)NCC(=O)N[C@@H](CCC(=O)O)C(=O)N[C@@H](CO)C(=O)N[C@@H](CC(N)=O)C(=O)N[C@@H](CCC(N)=O)C(=O)N[C@@H](CCC(=O)O)C(=O)N[C@@H](CCCNC(=N)N)C(=O)NCC(=O)N[C@@H](C)C(=O)N[C@@H](CCCNC(=N)N)C(=O)N[C@@H](C)C(=O)N[C@@H](CCCNC(=N)N)C(=O)N[C@@H](CC(C)C)C(N)=O)[C@@H](C)CC)C(C)C)[C@@H](C)O [GRF, GRF(1-44)amide]	no significant complications	no apparent discomfort		
																PTH(1-34)OH			up to 4 mg/mL	4 months
